{"source": "paper PMC7725824", "about": "“Fused isoselenazolium salts suppress breast cancer cell growth by dramatic increase in pyruvate-dependent mitochondrial ROS production” (Scientific Reports, 2020)", "key": {"[1]": {"test": "Cytotoxicity assay (MTT), MDCK", "assay_type": "cell-based, Canine", "settings": "dog, MDCK cells, normal cell line, mean ± S.D., 3 experiments", "experimental": "(§1) MCF-7 (human breast adenocarcinoma, estrogen-positive) and 4T1 (mouse carcinoma), as breast cancer cell lines, and H9C2 (rat cardiomyoblasts), NIH 3T3 (mouse fibroblasts), HEKa (primary human epidermal keratinocytes), MDCK (Madin-Darby Canine Kidney) cells, and A7r5 (rat vascular smooth muscle cells), as normal cell lines, were obtained from the American Type Culture Collection [ATCC] collection for use in the current study. All cell lines were cultured in Dulbecco's modified Eagle's medium (DMEM) containing 10% fetal bovine serum (FBS) and 4 mM L-glutamine at 37 °C and 5% CO2.\n(§2) Cell viability was assessed by the addition of 3-(4,5-dimethylthiazol-2-yl)-2,5-diphenyltetrazolinium bromide (MTT). Briefly, cells were seeded (2–6 × 10^4 cells/ml) in 96-well plates and allowed to attach for 24 h. Solutions of test compounds were prepared and serially diluted to obtain the appropriate concentrations. The cells were treated with the test compounds at different concentrations (0.032–100 µM) and incubated for 48 h at 37 °C and 5% CO2. Then, the culture medium was removed, and medium containing 0.2 mg/ml MTT was added. After 3 h (37 °C, 5% CO2), the MTT-containing medium was removed, and 200 μl of dimethyl sulfoxide (DMSO) was immediately added to each sample. The absorbance was assessed at 540 nm using a Tecan multiplate reader Infinite 1000 (Austria). The half-maximal inhibitory concentration (IC50) of each compound was calculated using Graph Pad Prism 3.0."}, "[2]": {"system": "CL/DOPC (1:3) vesicles (cardiolipin)", "test": "Isothermal titration calorimetry with CL/DOPC liposomes", "assay_type": "binding", "settings": "25 °C", "experimental": "(§3) The obtained large multilamellar liposomes were sonicated in a bath-type sonicator (Cole Parmer Ultrasonic Cleaner 8891CPX (USA)) at room temperature for 30 min and then extruded (LiposoFast-Basic, Avestin) through a 100 nm polycarbonate filter 21 times. The quality of the resulting small unilamellar vesicles was determined by dynamic light scattering (DLS) (Zetasizer Nano ZSP, Malvern Panalytical Ltd., UK).\n(§4) The experiments were carried out using an isothermal titration calorimeter (MicroCal iTC200, Malvern Panalytical Ltd., UK). To carry out the titration, the injection syringe was filled with a solution of compound 6 (100 µM), and the reaction cell was filled with liposome dispersion (200 µM of total lipid). The experiments were performed at 25 and 37 °C with a stirring speed of 750 rpm. […] The data consisted of a series of heat flows as a function of time, which were collected automatically and analyzed by Origin 7 software (OriginLab Corporation, Northampton, USA, www.originlab.com, 2002). The changes in enthalpy (ΔH) due to the interactions between 6 and the liposome dispersions were recorded, and then stoichiometry (N), the association constant (KA), the dissociation constant (KD), entropy (ΔS) and the Gibbs free energy (ΔG) were calculated. The obtained sigmoidal titration curves were evaluated assuming independent saturable binding sites in the outer vesicle interface. […]"}, "[3]": {"system": "DOPC liposomes", "test": "Isothermal titration calorimetry with DOPC liposomes", "assay_type": "binding", "settings": "25 °C, 200 µM total lipid", "experimental": "as §3, §4"}, "[4]": {"system": "MCF-7 cells", "test": "NAD+/NADH assay kit measurement", "assay_type": "cell-based, human", "settings": "2 μM, 10 min, vs control", "experimental": "The NAD^+/NADH ratio in the MCF-7 cells exposed to the test compounds (2 μM) for 10 min was measured using an NAD^+/NADH assay kit (Abcam, ab65348) according to the manufacturer's instructions."}, "[5]": {"system": "CL/DOPC liposomes (cardiolipin)", "test": "1H NMR interaction study with CL-containing liposomes", "assay_type": "binding", "settings": "0.4 mM 6, 1.2 mM DOPC, 0.4 mM CL, 25 °C", "experimental": "Cardiolipin (CL) liposomes for NMR analysis were prepared by the thin-film method followed by sonication and extrusion. […] The obtained lipid thin film was dried in vacuo overnight. Then, the dry lipid film was rehydrated in D18 HEPES buffer (20 mM, pH 7.4, 10% D2O) and gently vortexed, and the samples were sonicated for 30 min in a bath-type sonicator. The obtained sample of liposomes was extruded 21 times through a 100-nm pore polycarbonate filter (Nucleopore Corp., CA). Similarly, liposomes from DOPC only were prepared.\nTo study the interactions of compound 6 with CL and DOPC liposomes, a stock solution of 6 (2 mM) in D18 HEPES buffer (20 mM, pH 7.4, 10% D2O) was added to CL/DOPC or DOPC liposome dispersions to reach 400:1200:400 µM CL/DOPC/6 solution or 1600:400 µM DOPC/6 solution followed by gentle vortexing for 30 s.\nNMR spectra were acquired on a 600‐MHz Bruker Avance NEO spectrometer equipped with a 5 mm QCI-F quadruple resonance pulsed‐field‐gradient cryoprobe. The temperature was calibrated against methanol and set to 25 °C. Chemical shifts were referenced to the water resonance at 4.77 ppm with respect to 4,4-dimethyl-4-silapentane-1-sulfonic acid (DSS). The samples contained […] 6 in 90% H2O and 10% D2O with and without DOPC or CL/DOPC liposomes. The NMR data were processed and analyzed using MestReNova software."}, "[6]": {"test": "Cytotoxicity assay (MTT), H9C2", "assay_type": "cell-based, rat", "settings": "rat, H9C2 cells (cardiomyoblasts); normal cell line; MTT, 48 h; mean ± S.D., 3 experiments", "experimental": "as §1, §2"}, "[7]": {"test": "Cytotoxicity assay (MTT), A7r5", "assay_type": "cell-based, rat", "settings": "rat, A7r5 cells (vascular smooth muscle cells), normal cell line, mean ± S.D., 3 experiments", "experimental": "as §1, §2"}, "[8]": {"system": "MCF-7 cells", "test": "Fluorometric measurement of NMN level", "assay_type": "cell-based, human", "settings": "2 μM, 10 min, vs control", "experimental": "For fluorometric measurements of NMN, a previously described method was used, with minor modifications. […] The cells were washed with PBS and then lysed by adding 200 μl of 1 M HClO4 to each well and incubating at 4 °C for 20 min. The cells were harvested by scraping and transferred to a tube. The extracts were neutralized with 100 μl of 2 M KOH for 5 min at room temperature and 50 μl of 0.1 M bicine (pH 7.4) was added. The samples were centrifuged at 14 000 × g for 10 min at 4 °C, and the supernatant was collected for further analysis. The protein concentration in each sample was determined using a Bio-Rad protein assay kit. […] The reaction was incubated for 2 min at 4 °C, after which 45 μl of 88% formic acid was added, and the samples were incubated for another 10 min at 37 °C on a shaker. The fluorescence was measured using a Tecan multiplate reader Infinite 1000 (Austria) with excitation at 382 nm and emission at […]."}, "[9]": {"system": "MCF-7", "test": "Cytotoxicity assay (MTT), MCF-7", "assay_type": "cell-based, human", "settings": "Homo sapiens, MCF7; breast cancer cell line; MTT, 48 h; mean ± S.D., 3 experiments; read-out: Cytotoxicity, IC50, MCF-7", "experimental": "as §1, §2"}}}
{"smiles": "OC1(c2[se][n+]3ccsc3c2Br)CCCCC1", "note": "[Compound 6, 3-bromo-2-(1-hydroxycyclohexyl)[1,2]selenazolo[2,3-b]thiazolium chloride]", "values": [{"measurement": "IC50 at 48 h", "setting": "[1]", "value": "6.58 ± 0.33", "unit": "µM"}, {"measurement": "ITC isoselenazolium cation–CL interaction", "setting": "[2]", "value": "decrease in enthalpy"}, {"measurement": "ITC binding to DOPC liposomes", "setting": "[3]", "value": "no signs of binding"}, {"measurement": "decrease in NAD+ level", "setting": "[4]", "value": 25, "unit": "%"}, {"measurement": "decrease in NAD+/NADH ratio", "setting": "[4]", "value": "without affecting"}, {"measurement": "decrease in NADH level", "setting": "[4]", "value": "without affecting"}, {"measurement": "1H NMR resonances in the presence of CL-containing liposomes", "setting": "[5]", "value": "broadened"}, {"measurement": "IC50 at 48 h", "setting": "[6]", "value": "3.7 ± 0.2", "unit": "µM"}, {"measurement": "IC50 at 48 h", "setting": "[7]", "value": "1.97 ± 0.27", "unit": "µM"}, {"measurement": "decrease in NMN levels", "setting": "[8]", "value": 26, "unit": "%"}, {"measurement": "IC50", "setting": "[9]", "value": "3.23 ± 0.03", "unit": "µM"}]}
